We go through twelve molecules from patent US20230093861A1, “RAPAMYCIN ANALOGS AS MTOR INHIBITORS” (Revolution Medicines, Inc., priority 2017, published 2023).

Experiment [1] relates to P-Akt (S473). Put plainly: Cell based AlphaLISA assay, inhibition of P-Akt (S473) (mTORC2 substrate phosphorylation) in MDA-MB-468 cells. The note with it: Homo sapiens, MDA-MB-468, 4 h, AlphaLISA, two to four hours at 37° C., read-out: pIC50 for Inhibition of mTORC1 and mTORC2 Substrate Phosphorylation, p-AKT 1/2/3 -(S473) (converted). The method in brief:
(§1)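 AlphaLISA SureFire Ultra detection of phosphorylated substrate in lysed cells; duplicate Alpha reads; control-normalized IC50 fitting.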
(In general: Alpha assays give light when donor and acceptor beads are brought close together.)

Experiment [2] relates to P-P70S6K (T389). Put plainly: Cell based AlphaLISA assay, inhibition of P-P70S6K (T389) (mTORC1 substrate phosphorylation) in MDA-MB-468 cells. The note with it: Homo sapiens, 4 h, AlphaLISA, two to four hours at 37° C., read-out: pIC50 for Inhibition of mTORC1 and mTORC2 Substrate Phosphorylation, P-P70S6K-(T389) (converted). In a few lines: as §1
Experiment [3] concerns P-4E-BP1 (T37/46). Put plainly: Cell based AlphaLISA assay, inhibition of P-4E-BP1 (T37/46) (mTORC1 substrate phosphorylation) in MDA-MB-468 cells. The note with it: Homo sapiens, MDA-MB-468, 4 h, AlphaLISA, two to four hours at 37° C., read-out: pIC50 for Inhibition of mTORC1 and mTORC2 Substrate Phosphorylation, P-4E-BP1-(T37/46) (converted). In a few lines: as §1

Turning to `CO[C@H]1C[C@@H]2CC[C@@H](C)[C@@](O)(O2)C(=O)C(=O)N2CCCC[C@H]2C(=O)O[C@H]([C@H](C)C[C@@H]2CC[C@H](n3cc(COC(=O)NCCOCCOCCOCCC(=O)NCCOCCOCCC(=O)NCCCCn4nc(-c5ccc6oc(N)nc6c5)c5c(N)ncnc54)nn3)[C@H](OC)C2)C/C(=N/OCc2ccccc2)[C@H](C)/C=C(\C)[C@@H](O)[C@@H](OC)C(=O)[C@H](C)C[C@H](C)/C=C/C=C/C=C/1C` [Example 154], the IC50 in experiment [1], in experiment [2] and in experiment [3] was more than 1 µM each time.
Consider `CO[C@H]1C[C@@H]2CC[C@@H](C)[C@@](O)(O2)C(=O)C(=O)N2CCCC[C@H]2C(=O)O[C@H]([C@H](C)C[C@@H]2CC[C@H](n3cc(COC(=O)NCCOCCOCCOCCC(=O)NCCOCCOCCC(=O)NCCCCn4nc(-c5cc6cc(O)ccc6[nH]5)c5c(N)ncnc54)nn3)[C@H](OC)C2)C/C(=N/OCc2ccccc2)[C@H](C)/C=C(\C)[C@@H](O)[C@@H](OC)C(=O)[C@H](C)C[C@H](C)/C=C/C=C/C=C/1C` [Example 155], for which the IC50 in experiment [1], in experiment [2] and in experiment [3] was more than 1 µM in each case.
Take `CO[C@H]1C[C@@H]2CC[C@@H](C)[C@@](O)(O2)C(=O)C(=O)N2CCCC[C@H]2C(=O)O[C@H]([C@H](C)C[C@@H]2CC[C@H](n3cc(COC(=O)NCCOCCOCCOCCC(=O)NCCOCCOCCOCCC(=O)NCCCCn4nc(-c5ccc6oc(N)nc6c5)c5c(N)ncnc54)nn3)[C@H](OC)C2)C/C(=N/OCc2ccccc2)[C@H](C)/C=C(\C)[C@@H](O)[C@@H](OC)C(=O)[C@H](C)C[C@H](C)/C=C/C=C/C=C/1C` [Example 156]: the IC50 in experiment [1], in experiment [2] and in experiment [3] was more than 1 µM in each case.
Consider `CO[C@H]1C[C@@H]2CC[C@@H](C)[C@@](O)(O2)C(=O)C(=O)N2CCCC[C@H]2C(=O)O[C@H]([C@H](C)C[C@@H]2CC[C@H](n3cc(COC(=O)NCCOCCOCCOCCC(=O)NCCOCCOCCOCCC(=O)NCCCCn4nc(-c5cc6cc(O)ccc6[nH]5)c5c(N)ncnc54)nn3)[C@H](OC)C2)C/C(=N/OCc2ccccc2)[C@H](C)/C=C(\C)[C@@H](O)[C@@H](OC)C(=O)[C@H](C)C[C@H](C)/C=C/C=C/C=C/1C` [Example 157], for which the IC50 in experiment [1], in experiment [2] and in experiment [3] was more than 1 µM each time.
For the molecule `CO[C@H]1C[C@@H]2CC[C@@H](C)[C@@](O)(O2)C(=O)C(=O)N2CCCC[C@H]2C(=O)O[C@H]([C@H](C)C[C@@H]2CC[C@H](n3cc(COC(=O)NCCOCCOCCOCCC(=O)NCCOCCOCCC(=O)NCCCCn4nc(-c5ccc6oc(N)nc6c5)c5c(N)ncnc54)nn3)[C@H](OC)C2)C/C(=N/OC(C)(C)C)[C@H](C)/C=C(\C)[C@@H](O)[C@@H](OC)C(=O)[C@H](C)C[C@H](C)/C=C/C=C/C=C/1C` [Example 158], the IC50 in experiment [1], in experiment [2] and in experiment [3] was more than 1 µM in each case.
Regarding `CO[C@H]1C[C@@H]2CC[C@@H](C)[C@@](O)(O2)C(=O)C(=O)N2CCCC[C@H]2C(=O)O[C@H]([C@H](C)C[C@@H]2CC[C@H](n3cc(COC(=O)NCCOCCOCCOCCC(=O)NCCOCCOCCC(=O)NCCCCn4nc(-c5cc6cc(O)ccc6[nH]5)c5c(N)ncnc54)nn3)[C@H](OC)C2)C/C(=N/OC(C)(C)C)[C@H](C)/C=C(\C)[C@@H](O)[C@@H](OC)C(=O)[C@H](C)C[C@H](C)/C=C/C=C/C=C/1C` [Example 159], the figures for the IC50 in experiment [1], in experiment [2] and in experiment [3] were more than 1 µM, less than 0.001 µM and more than 1 µM, respectively.
Take `CO[C@H]1C[C@@H]2CC[C@@H](C)[C@@](O)(O2)C(=O)C(=O)N2CCCC[C@H]2C(=O)O[C@H]([C@H](C)C[C@@H]2CC[C@H](n3cc(COC(=O)NCCOCCOCCOCCC(=O)NCCOCCOCCOCCC(=O)NCCCCn4nc(-c5ccc6oc(N)nc6c5)c5c(N)ncnc54)nn3)[C@H](OC)C2)C/C(=N/OC(C)(C)C)[C@H](C)/C=C(\C)[C@@H](O)[C@@H](OC)C(=O)[C@H](C)C[C@H](C)/C=C/C=C/C=C/1C` [Example 160]: the values for the IC50 in experiment [1], in experiment [2] and in experiment [3] were 0.0316 to 1 µM, 0.01 to 1 µM and more than 1 µM, respectively.
With `CO[C@H]1C[C@@H]2CC[C@@H](C)[C@@](O)(O2)C(=O)C(=O)N2CCCC[C@H]2C(=O)O[C@H]([C@H](C)C[C@@H]2CC[C@H](n3cc(COC(=O)NCCOCCOCCOCCC(=O)NCCOCCOCCOCCC(=O)NCCCCn4nc(-c5cc6cc(O)ccc6[nH]5)c5c(N)ncnc54)nn3)[C@H](OC)C2)C/C(=N/OC(C)(C)C)[C@H](C)/C=C(\C)[C@@H](O)[C@@H](OC)C(=O)[C@H](C)C[C@H](C)/C=C/C=C/C=C/1C` [Example 161], the IC50 in experiment [1], in experiment [2] and in experiment [3] was more than 1 µM each time.
For the molecule `CO[C@H]1C[C@@H]2CC[C@@H](C)[C@@](O)(O2)C(=O)C(=O)N2CCCC[C@H]2C(=O)O[C@H]([C@H](C)C[C@@H]2CC[C@H](n3cc(CCCC(=O)NCCOCCOCCOCCC(=O)NCCOCCOCCC(=O)NCCCCn4nc(-c5ccc6oc(N)nc6c5)c5c(N)ncnc54)nn3)[C@H](OC)C2)C[C@@H](OC)[C@H](C)/C=C(\C)[C@@H](O)[C@@H](OC)C(=O)[C@H](C)C[C@H](C)/C=C/C=C/C=C/1C` [Example 162], the IC50 in experiment [1] was more than 1 µM; in experiment [2], 0.001 to 0.01 µM; in experiment [3], 0.0316 to 1 µM.
For `CO[C@H]1C[C@@H]2CC[C@@H](C)[C@@](O)(O2)C(=O)C(=O)N2CCCC[C@H]2C(=O)O[C@H]([C@H](C)C[C@@H]2CC[C@H](n3cc(CCCC(=O)NCCOCCOCCOCCC(=O)NCCOCCOCCC(=O)NCCCCn4nc(-c5cc6cc(O)ccc6[nH]5)c5c(N)ncnc54)nn3)[C@H](OC)C2)C[C@@H](OC)[C@H](C)/C=C(\C)[C@@H](O)[C@@H](OC)C(=O)[C@H](C)C[C@H](C)/C=C/C=C/C=C/1C` [Example 163], in that order: more than 1 µM, 0.01 to 1 µM and more than 1 µM.
For `CO[C@H]1C[C@@H]2CC[C@@H](C)[C@@](O)(O2)C(=O)C(=O)N2CCCC[C@H]2C(=O)O[C@H]([C@H](C)C[C@@H]2CC[C@H](n3cc(CCCC(=O)NCCOCCOCCOCCC(=O)NCCOCCOCCOCCC(=O)NCCCCn4nc(-c5ccc6oc(N)nc6c5)c5c(N)ncnc54)nn3)[C@H](OC)C2)C[C@@H](OC)[C@H](C)/C=C(\C)[C@@H](O)[C@@H](OC)C(=O)[C@H](C)C[C@H](C)/C=C/C=C/C=C/1C` [Example 164], in that order: 0.0316 to 1 µM, less than 0.001 µM and 0.00316 to 0.0316 µM.
Turning to `CCO[C@@H]1C[C@@H]([C@H](C)C[C@@H]2CC[C@H](n3cc(CCCC(=O)NCCOCCOCCOCCC(=O)NCCOCCOCCC(=O)NCCCCn4nc(-c5ccc6oc(N)nc6c5)c5c(N)ncnc54)nn3)[C@H](OC)C2)OC(=O)[C@@H]2CCCCN2C(=O)C(=O)[C@]2(O)O[C@@H](CC[C@H]2C)C[C@H](OC)/C(C)=C/C=C/C=C/[C@@H](C)C[C@@H](C)C(=O)[C@H](OC)[C@H](O)/C(C)=C/[C@H]1C` [Example 165], the values for the IC50 in experiment [1], in experiment [2] and in experiment [3] were more than 1 µM, 0.001 to 0.01 µM and 0.0316 to 1 µM, respectively.
